Reference: patent US10040804B2, “Compounds targeting proteins, compositions, methods, and uses thereof” (BioTheryX, Inc., priority 2016, dated 2018)
Each block holds one compound with its values, some of them ahead of it.

Assays:
[1] = test system: Molm-13 cells; assay: Molm-13 cell viability (CellTiter-Glo); assay type: cell-based; conditions: Homo sapiens, MOLM-13, read-out: % Inhibition (MOLM-13 Cell Viability); for cytotoxicity at 0.3 µM: compound concentration 0.3 μM; for cytotoxicity at 10 µM: compound concentration 10 μM
Method in brief: (§1)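 Molm-13 (RPMI-1640, 10% FBS) and H1048 (DMEM:F12, 5% FBS with supplements) plated at 20,000 cells/well, treated with compound or 0.1% DMSO for 3 days at 37° C., 5% CO2. Viability read by CellTiter-Glo luminescence after 10 min.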

[2] = test system: H1048 cells; assay: H1048 cell viability (CellTiter-Glo); assay type: cell-based; conditions: Homo sapiens, NCI-H1048, 72 h, H1048, 3 days, DMSO = 100.00; for viability at 1 µM: 1 μM compound concentration; for viability at 10 µM: 10 μM compound concentration
Method in brief: as §1

[3] = molecular target: T1, GSPT1 (Homo sapiens, UniProt P15170); assay: GSPT1 protein levels by Western Blot analysis; assay type: cell-based; conditions: DMSO = 100.00; for remaining activity at 0.1 µM: 100 nM compound concentration; for remaining activity at 1 µM: 1 μM compound concentration
T1 construct: Whole cell extracts were prepared using RIPA buffer according to manufacturer's protocol (Pierce); endogenous in cells
Method in brief: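 Molm-13 AML cells in RPMI 1640 with 10% FBS, about 10^6 cells/mL, treated with compound or DMSO for 6-8 h. RIPA whole-cell lysates resolved by SDS-PAGE, blotted and probed for GSPT1 with β-actin reference; IRDye secondary antibodies quantified by LI-COR Odyssey infrared imaging.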

[4] = test system: IL-2; assay: anti-CD3-induced IL-2 secretion in PBMCs; assay type: cell-based; conditions: Homo sapiens, PBMC; compound concentration 1 μM; anti-CD3 stimulated PBMCs, 24 h; DMSO = 1.0; read-out: Fold Change IL-2
Method in brief: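 PBMCs stimulated on plates coated with 1 ug/mL anti-CD3 (OKT3), with compound or DMSO, 24 h. Supernatant IL-2 measured by Mesoscale; activity expressed as fold difference from DMSO-stimulated control.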

[5] = test system: TNF-α; assay: TNF-α expression in LPS stimulated PBMCs (Meso Scale); assay type: cell-based, human; conditions: Homo sapiens, PBMC, compound concentration 1 μM
Method in brief: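 Thawed primary human PBMCs, 200,000 cells/well in RPMI-1640/10% FBS, pretreated with compound 1 h, then stimulated with 100 ng/mL LPS for 18-24 h. Supernatant TNF-α measured by Meso Scale assay; activity expressed as percentage of LPS-induced level, DMSO as negative control.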

[6] = test system: IL-6; assay: IL-6 expression in LPS stimulated PBMCs (Meso Scale); assay type: cell-based, human; conditions: Homo sapiens, PBMC; compound concentration 1 μM; LPS-stimulated PBMCs
Method in brief: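 Thawed human PBMCs at 200,000 cells/well in RPMI-1640/10% FBS were pretreated with compound or DMSO for 1 h, then stimulated with 100 ng/mL LPS for 18–24 h. Supernatant IL-6 was measured by Meso Scale assay and expressed as % of LPS-induced activity.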

[7] = test system: IL-1β; assay: IL-1β expression in LPS stimulated PBMCs (Meso Scale); assay type: cell-based, human; conditions: Homo sapiens, PBMC, compound concentration 1 μM
Method in brief: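 Human PBMCs (200,000 cells/well in RPMI-1640/10% FBS) were pretreated with compound for 1 h, then stimulated with 100 ng/mL LPS for 18-24 h. IL-1β in supernatant was measured by Meso Scale assay. Activity is expressed as percentage of LPS-induced level, with DMSO-treated wells as negative control.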

[8] = test system: MDA-MB-231 cells; assay: MDA-MB-231 cell viability (CellTiter-Glo); assay type: cell-based; conditions: Homo sapiens, 72 h, 3 days, DMSO = 100.00; for viability at 1 µM: 1 μM compound concentration; for viability at 10 µM: 10 μM compound concentration
Method in brief: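 Cells in DMEM with 10% FBS, seeded at 10,000 per well, exposed to compound (0.1% DMSO control) for 3 days at 37° C, 5% CO2. Viability read by CellTiter-Glo luminescence after 10 min shaking.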

T1 sequence (P15170 whole entry): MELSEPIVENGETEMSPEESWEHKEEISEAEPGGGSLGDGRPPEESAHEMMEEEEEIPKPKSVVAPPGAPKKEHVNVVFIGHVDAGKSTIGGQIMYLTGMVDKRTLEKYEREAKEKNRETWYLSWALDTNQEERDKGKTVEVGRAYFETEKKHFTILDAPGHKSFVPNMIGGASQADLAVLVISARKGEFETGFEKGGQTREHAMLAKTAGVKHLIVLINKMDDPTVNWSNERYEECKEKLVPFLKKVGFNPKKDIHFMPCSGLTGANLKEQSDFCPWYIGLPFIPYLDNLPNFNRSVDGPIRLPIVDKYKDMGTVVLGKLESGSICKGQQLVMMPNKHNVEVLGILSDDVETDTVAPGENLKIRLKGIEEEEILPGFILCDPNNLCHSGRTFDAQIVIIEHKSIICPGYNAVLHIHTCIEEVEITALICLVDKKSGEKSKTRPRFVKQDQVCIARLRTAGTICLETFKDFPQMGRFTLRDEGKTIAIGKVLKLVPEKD
T1 sequence (Q96SW2 whole entry, further chain): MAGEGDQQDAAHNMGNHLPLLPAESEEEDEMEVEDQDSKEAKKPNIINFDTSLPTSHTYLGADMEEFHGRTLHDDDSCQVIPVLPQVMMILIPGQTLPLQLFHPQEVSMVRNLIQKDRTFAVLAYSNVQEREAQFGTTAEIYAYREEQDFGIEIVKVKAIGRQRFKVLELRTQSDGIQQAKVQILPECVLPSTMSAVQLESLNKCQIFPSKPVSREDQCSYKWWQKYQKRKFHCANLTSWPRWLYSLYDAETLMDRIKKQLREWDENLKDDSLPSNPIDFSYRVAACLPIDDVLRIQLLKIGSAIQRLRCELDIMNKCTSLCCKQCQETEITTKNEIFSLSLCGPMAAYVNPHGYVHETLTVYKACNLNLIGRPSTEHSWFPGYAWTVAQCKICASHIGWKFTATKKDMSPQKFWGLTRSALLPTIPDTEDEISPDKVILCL
T1 sequence (Q16531 whole entry partner): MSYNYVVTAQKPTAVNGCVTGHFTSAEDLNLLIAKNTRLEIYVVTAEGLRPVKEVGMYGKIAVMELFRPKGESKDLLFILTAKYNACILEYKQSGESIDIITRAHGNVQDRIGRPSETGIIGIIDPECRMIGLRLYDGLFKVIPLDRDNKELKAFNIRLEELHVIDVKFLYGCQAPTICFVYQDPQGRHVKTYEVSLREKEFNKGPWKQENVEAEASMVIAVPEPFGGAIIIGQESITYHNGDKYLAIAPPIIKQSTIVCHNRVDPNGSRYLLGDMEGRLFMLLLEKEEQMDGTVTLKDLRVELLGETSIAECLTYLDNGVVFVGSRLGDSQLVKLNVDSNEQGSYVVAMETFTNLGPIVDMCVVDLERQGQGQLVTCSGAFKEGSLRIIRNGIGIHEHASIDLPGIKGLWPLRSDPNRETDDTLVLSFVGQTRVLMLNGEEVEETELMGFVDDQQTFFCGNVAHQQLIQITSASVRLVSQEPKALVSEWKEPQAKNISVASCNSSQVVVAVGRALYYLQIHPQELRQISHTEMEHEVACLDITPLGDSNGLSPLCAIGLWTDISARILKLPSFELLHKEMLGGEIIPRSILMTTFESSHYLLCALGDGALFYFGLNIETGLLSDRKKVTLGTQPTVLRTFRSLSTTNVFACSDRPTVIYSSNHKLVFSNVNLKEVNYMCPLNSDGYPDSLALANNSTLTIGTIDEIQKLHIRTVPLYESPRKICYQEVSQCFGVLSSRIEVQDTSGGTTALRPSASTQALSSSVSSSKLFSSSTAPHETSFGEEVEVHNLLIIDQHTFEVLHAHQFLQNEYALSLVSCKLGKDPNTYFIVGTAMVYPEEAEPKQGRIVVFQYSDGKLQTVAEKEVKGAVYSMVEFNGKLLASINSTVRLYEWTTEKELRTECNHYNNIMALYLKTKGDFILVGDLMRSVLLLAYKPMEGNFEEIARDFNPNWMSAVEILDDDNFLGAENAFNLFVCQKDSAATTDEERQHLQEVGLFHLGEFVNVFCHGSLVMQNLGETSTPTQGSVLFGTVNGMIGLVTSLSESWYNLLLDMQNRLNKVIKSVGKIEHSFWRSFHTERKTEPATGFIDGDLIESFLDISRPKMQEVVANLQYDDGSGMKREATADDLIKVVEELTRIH

remaining activity at 0.1 µM [3]: 49% | remaining activity at 1 µM [3]: 5.52%
Compound: Cc1ccc(NC(=O)NCc2scc3c2CN([C@H]2CCCC(=O)NC2=O)C3=O)cc1C(F)(F)F [Compound 38, (S)-1-((5-(2,7-Dioxoazepan-3-yl)-4-oxo-5,6-dihydro-4H-thieno[3,4-c]pyrrol-1-yl)methyl)-3-(4-methyl-3-(trifluoromethyl)phenyl)urea]
cytotoxicity at 0.3 µM [1]: 50% | viability at 1 µM [2]: 8.35% | viability at 10 µM [2]: 7.89% | fold induction at 1 µM [4]: 0.6 | inhibition at 1 µM [5]: 87% | inhibition at 1 µM [6]: 94% | inhibition at 1 µM [7]: 84% | viability at 1 µM [8]: 54.7% | viability at 10 µM [8]: 27.6%

remaining activity at 0.1 µM [3]: 87.4% | remaining activity at 1 µM [3]: 96%
Compound: Cc1ccc(CNC(=O)NCc2cc3c(s2)C(=O)N([C@H]2CCCC(=O)NC2=O)C3)cc1Cl [Compound 39, (S)-1-(3-Chloro-4-methylbenzyl)-3-((5-(2,7-dioxoazepan-3-yl)-6-oxo-5,6-dihydro-4H-thieno[2,3-c]pyrrol-2-yl)methyl)urea]
cytotoxicity at 10 µM [1]: 9% | viability at 1 µM [2]: 58.3% | viability at 10 µM [2]: 19.9% | fold induction at 1 µM [4]: 1.4 | inhibition at 1 µM [5]: 18% | inhibition at 1 µM [6]: 0% | inhibition at 1 µM [7]: 24% | viability at 1 µM [8]: 105% | viability at 10 µM [8]: 101%

remaining activity at 0.1 µM [3]: 46% | remaining activity at 1 µM [3]: 40%
Compound: Cc1ccc(NC(=O)NCc2cc3c(s2)C(=O)N(C2CCC(=O)NC2=O)C3)cc1Cl (centres unmarked) [Compound 40, 1-(3-Chloro-4-methylphenyl)-3-((5-(2,6-dioxopiperidin-3-yl)-6-oxo-5,6-dihydro-4H-thieno[2,3-c]pyrrol-2-yl)methyl)urea]
cytotoxicity at 0.02 µM ([1]; compound concentration 0.02 μM): 50% | viability at 1 µM [2]: 12.9% | viability at 10 µM [2]: 13.6% | fold induction at 1 µM [4]: 0.3 | inhibition at 1 µM [5]: 34% | inhibition at 1 µM [6]: 17% | inhibition at 1 µM [7]: 37% | viability at 1 µM [8]: 57.7% | viability at 10 µM [8]: 50%

remaining activity at 0.1 µM [3]: 55.2% | remaining activity at 1 µM [3]: 6.4%
Compound: Cc1ccc(NC(=S)NCc2scc3c2CN([C@H]2CCCC(=O)NC2=O)C3=O)cc1Cl [Compound 41]
cytotoxicity at 0.3 µM [1]: 50% | viability at 1 µM [2]: 9.42% | viability at 10 µM [2]: 9.37% | fold induction at 1 µM [4]: 0.3 | inhibition at 1 µM [5]: 90% | inhibition at 1 µM [6]: 95% | inhibition at 1 µM [7]: 89% | viability at 1 µM [8]: 58.2% | viability at 10 µM [8]: 30%

remaining activity at 0.1 µM [3]: 50.7% | remaining activity at 1 µM [3]: 8.44%
Compound: Cc1ccc(NC(=O)NCc2scc3c2CN([C@H]2CCCC(=O)NC2=O)C3=O)cc1C(C)C [Compound 42, (S)-1-((5-(2,7-Dioxoazepan-3-yl)-4-oxo-5,6-dihydro-4H-thieno[3,4-c]pyrrol-1-yl)methyl)-3-(3-isopropyl-4-methylphenyl)urea]
cytotoxicity at 0.8 µM ([1]; compound concentration 0.8 μM): 50% | viability at 1 µM [2]: 8.7% | viability at 10 µM [2]: 8.68% | fold induction at 1 µM [4]: 0.4 | inhibition at 1 µM [5]: 90% | inhibition at 1 µM [6]: 97% | inhibition at 1 µM [7]: 91% | viability at 1 µM [8]: 57.6% | viability at 10 µM [8]: 30.5%

remaining activity at 0.1 µM [3]: 56% | remaining activity at 1 µM [3]: 14.2%
Compound: Cc1c(Cl)cc(NC(=O)NCc2scc3c2CN([C@H]2CCCC(=O)NC2=O)C3=O)cc1C(C)C [Compound 43, (S)-1-(3-Chloro-5-isopropyl-4-methylphenyl)-3-((5-(2,7-dioxoazepan-3-yl)-4-oxo-5,6-dihydro-4H-thieno[3,4-c]pyrrol-1-yl)methyl)urea]
cytotoxicity at 10 µM [1]: 100% | viability at 1 µM [2]: 7.97% | viability at 10 µM [2]: 7.63% | fold induction at 1 µM [4]: 0.5 | inhibition at 1 µM [5]: 77% | inhibition at 1 µM [6]: 88% | inhibition at 1 µM [7]: 73% | viability at 1 µM [8]: 55.2% | viability at 10 µM [8]: 23.7%

remaining activity at 0.1 µM [3]: 57.3% | remaining activity at 1 µM [3]: 53.6%
Compound: Cc1ccc(CNC(=O)NCc2cc3c(s2)C(=O)N(C2CCC(=O)NC2=O)C3)cc1Cl (centres unmarked) [Compound 44, 1-(3-Chloro-4-methylbenzyl)-3-((5-(2,6-dioxopiperidin-3-yl)-6-oxo-5,6-dihydro-4H-thieno[2,3-c]pyrrol-2-yl)methyl)urea]
cytotoxicity at 0.1 µM ([1]; compound concentration 0.1 μM): 50% | viability at 1 µM [2]: 13.8% | viability at 10 µM [2]: 14.3% | fold induction at 1 µM [4]: 1 | inhibition at 1 µM [5]: 41% | inhibition at 1 µM [6]: 6% | inhibition at 1 µM [7]: 45% | viability at 1 µM [8]: 64.6% | viability at 10 µM [8]: 56.5%
